# Results: PubChem BioAssay AID1963436 (Molecular Pharmacology Branch, DTP, NCI, 2024)
# “And” between values parts separate entries of the source, which are not always exact repeats. Identical values can stand only once.
# Test system: OVCAR-5 complex spheroid (HUVEC/MSC), viability % T/C
# Assay: Anticancer human tumor OVCAR-5 cell line growth inhibition [Asc];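 also: spheroids exposed to agents for 7 days before readout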;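 as to viability, T/C: 100% = DMSO vehicle-treated wells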
# Conditions: for viability, T/C: stronger effect = lower value
# Outline: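 Spheroid model: tumor line + HUVEC + hMSC. Single agents and combinations; top conc. at/near clinical Cmax (10 microM if undetermined), half-log dilutions. DMSO stocks at 800-fold test concentration.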
# [1] = curve of first compound, second compound 0.1 µM
# [2] = curve of first compound, second compound 0.316 µM
# [3] = curve of first compound, second compound 1 µM
# [4] = second compound 0.1 µM, first compound 0.0316 µM
# [5] = second compound 0.1 µM, first compound 0.1 µM
# [6] = second compound 0.316 µM, first compound 0.0316 µM
# [7] = second compound 0.316 µM, first compound 0.1 µM
# [8] = second compound 1 µM, first compound 0.0316 µM
# [9] = second compound 1 µM, first compound 0.1 µM
smiles,measurement,setting,value
COc1c(OCCCN2CCOCC2)ccc2c3n(c(=NC(=O)c4cnc(N)nc4)nc12)CCN3,"viability, T/C",compound 0.00316 µM,85% and 93% and 92.1%
same,"viability, T/C",compound 0.01 µM,76.2% and 90.5% and 80.5%
same,"viability, T/C",compound 0.0316 µM,49.5% and 55% and 55.8%
same,"viability, T/C",compound 0.1 µM,26.1% and 29.9% and 42%
same,"viability, T/C",compound 0.316 µM,20.3% and 21.6% and 24.1%
same,"viability, T/C",compound 1 µM,9.88% and 9.15% and 11.8%
same,IC50,curve of compound,32.4 nM and 43.9 nM and 55.3 nM
NC1CCC(NC2CC2c2ccccc2)CC1 (configuration not stated) + CCN1C(C(=O)NC23CCC(C(=O)O)(CC2)CC3)C(c2cccc(Cl)c2F)C2(C(=O)Nc3cc(Cl)ccc32)C12CCCCC2,IC50,"curve of first compound, second compound 0.03 µM",> 100 nM
same,IC50,"curve of first compound, second compound 0.0949 µM",> 100 nM
same,IC50,"curve of first compound, second compound 0.3 µM",> 100 nM
same,IC50,"curve of first compound, second compound 0.949 µM",> 100 nM
same,IC50,"curve of first compound, second compound 3 µM",> 100 nM
same,"viability, T/C","second compound 0.03 µM, first compound 0.000316 µM",98.4%
same,"viability, T/C","second compound 0.03 µM, first compound 0.001 µM",90.7%
same,"viability, T/C","second compound 0.03 µM, first compound 0.00316 µM",88.6%
same,"viability, T/C","second compound 0.03 µM, first compound 0.01 µM",85.9%
same,"viability, T/C","second compound 0.03 µM, first compound 0.0316 µM",97.3%
same,"viability, T/C","second compound 0.03 µM, first compound 0.1 µM",89.8%
same,"viability, T/C","second compound 0.0949 µM, first compound 0.000316 µM",89.9%
same,"viability, T/C","second compound 0.0949 µM, first compound 0.001 µM",100%
same,"viability, T/C","second compound 0.0949 µM, first compound 0.00316 µM",88.5%
same,"viability, T/C","second compound 0.0949 µM, first compound 0.01 µM",82.5%
same,"viability, T/C","second compound 0.0949 µM, first compound 0.0316 µM",93%
same,"viability, T/C","second compound 0.0949 µM, first compound 0.1 µM",85.7%
same,"viability, T/C","second compound 0.3 µM, first compound 0.000316 µM",89.9%
same,"viability, T/C","second compound 0.3 µM, first compound 0.001 µM",90.9%
same,"viability, T/C","second compound 0.3 µM, first compound 0.00316 µM",93.2%
same,"viability, T/C","second compound 0.3 µM, first compound 0.01 µM",77.5%
same,"viability, T/C","second compound 0.3 µM, first compound 0.0316 µM",94.3%
same,"viability, T/C","second compound 0.3 µM, first compound 0.1 µM",97.3%
same,"viability, T/C","second compound 0.949 µM, first compound 0.000316 µM",89.4%
same,"viability, T/C","second compound 0.949 µM, first compound 0.001 µM",97.9%
same,"viability, T/C","second compound 0.949 µM, first compound 0.00316 µM",97.6%
same,"viability, T/C","second compound 0.949 µM, first compound 0.01 µM",88.9%
same,"viability, T/C","second compound 0.949 µM, first compound 0.0316 µM",85.5%
same,"viability, T/C","second compound 0.949 µM, first compound 0.1 µM",95.2%
same,"viability, T/C","second compound 3 µM, first compound 0.000316 µM",102%
same,"viability, T/C","second compound 3 µM, first compound 0.001 µM",99.6%
same,"viability, T/C","second compound 3 µM, first compound 0.00316 µM",105%
same,"viability, T/C","second compound 3 µM, first compound 0.01 µM",83.7%
same,"viability, T/C","second compound 3 µM, first compound 0.0316 µM",89.5%
same,"viability, T/C","second compound 3 µM, first compound 0.1 µM",91.5%
C=CC(=O)N1CCN(c2nc(=O)n(-c3c(C)ccnc3C(C)C)c3nc(-c4c(O)cccc4F)c(F)cc23)C(C)C1 (configuration not stated) + Cc1c(S(C)(=O)=O)c(-c2cc(F)cc(N3CCN(c4ccc(NS(=O)(=O)c5ccc(NC(CCN6CCC(C(=O)OCCCP(=O)(O)O)CC6)CSc6ccccc6)c(S(=O)(=O)C(F)(F)F)c5)cc4)CC3)c2)c(-c2ccc(Cl)cc2)n1C(C)C,IC50,[1],> 10000 nM
same,IC50,[2],> 10000 nM
same,IC50,[3],> 10000 nM
same,IC50,"curve of first compound, second compound 3.16 µM",> 10000 nM
same,IC50,"curve of first compound, second compound 10 µM",> 10000 nM
same,"viability, T/C",[4],100%
same,"viability, T/C",[5],109%
same,"viability, T/C","second compound 0.1 µM, first compound 0.316 µM",98.7%
same,"viability, T/C","second compound 0.1 µM, first compound 1 µM",111%
same,"viability, T/C","second compound 0.1 µM, first compound 3.16 µM",114%
same,"viability, T/C","second compound 0.1 µM, first compound 10 µM",97.5%
same,"viability, T/C",[6],93.4%
same,"viability, T/C",[7],103%
same,"viability, T/C","second compound 0.316 µM, first compound 0.316 µM",95.5%
same,"viability, T/C","second compound 0.316 µM, first compound 1 µM",96.9%
same,"viability, T/C","second compound 0.316 µM, first compound 3.16 µM",112%
same,"viability, T/C","second compound 0.316 µM, first compound 10 µM",102%
same,"viability, T/C",[8],89.8%
same,"viability, T/C",[9],101%
same,"viability, T/C","second compound 1 µM, first compound 0.316 µM",111%
same,"viability, T/C","second compound 1 µM, first compound 1 µM",98.2%
same,"viability, T/C","second compound 1 µM, first compound 3.16 µM",97.5%
same,"viability, T/C","second compound 1 µM, first compound 10 µM",106%
same,"viability, T/C","second compound 3.16 µM, first compound 0.0316 µM",95.4%
same,"viability, T/C","second compound 3.16 µM, first compound 0.1 µM",102%
same,"viability, T/C","second compound 3.16 µM, first compound 0.316 µM",109%
same,"viability, T/C","second compound 3.16 µM, first compound 1 µM",103%
same,"viability, T/C","second compound 3.16 µM, first compound 3.16 µM",108%
same,"viability, T/C","second compound 3.16 µM, first compound 10 µM",98.1%
same,"viability, T/C","second compound 10 µM, first compound 0.0316 µM",119%
same,"viability, T/C","second compound 10 µM, first compound 0.1 µM",136%
same,"viability, T/C","second compound 10 µM, first compound 0.316 µM",142%
same,"viability, T/C","second compound 10 µM, first compound 1 µM",139%
same,"viability, T/C","second compound 10 µM, first compound 3.16 µM",144%
same,"viability, T/C","second compound 10 µM, first compound 10 µM",145%
Cn1ncnc1[C@H]1c2n[nH]c(=O)c3cc(F)cc(c23)N[C@@H]1c1ccc(F)cc1 + CNC(C)C(=O)NC1CN(S(=O)(=O)c2cccc(S(=O)(=O)N3CCC4CCC(C(=O)NC(c5ccccc5)c5ccccc5)N4C(=O)C(NC(=O)C(C)NC)C3)c2)CCC2CCC(C(=O)NC(c3ccccc3)c3ccccc3)N2C1=O,IC50,"curve of first compound, second compound 0.01 µM",> 100 nM
same,IC50,"curve of first compound, second compound 0.0316 µM",> 100 nM
same,IC50,[1],> 100 nM
same,IC50,[2],> 100 nM
same,IC50,[3],> 100 nM
same,"viability, T/C","second compound 0.01 µM, first compound 0.000316 µM",92.5%
same,"viability, T/C","second compound 0.01 µM, first compound 0.001 µM",86.9%
same,"viability, T/C","second compound 0.01 µM, first compound 0.00316 µM",85.9%
same,"viability, T/C","second compound 0.01 µM, first compound 0.01 µM",84.3%
same,"viability, T/C","second compound 0.01 µM, first compound 0.0316 µM",92.3%
same,"viability, T/C","second compound 0.01 µM, first compound 0.1 µM",86.5%
same,"viability, T/C","second compound 0.0316 µM, first compound 0.000316 µM",81.8%
same,"viability, T/C","second compound 0.0316 µM, first compound 0.001 µM",77.6%
same,"viability, T/C","second compound 0.0316 µM, first compound 0.00316 µM",84.5%
same,"viability, T/C","second compound 0.0316 µM, first compound 0.01 µM",73.2%
same,"viability, T/C","second compound 0.0316 µM, first compound 0.0316 µM",73.9%
same,"viability, T/C","second compound 0.0316 µM, first compound 0.1 µM",74.6%
same,"viability, T/C","second compound 0.1 µM, first compound 0.000316 µM",78.3%
same,"viability, T/C","second compound 0.1 µM, first compound 0.001 µM",88.3%
same,"viability, T/C","second compound 0.1 µM, first compound 0.00316 µM",81.6%
same,"viability, T/C","second compound 0.1 µM, first compound 0.01 µM",71.7%
same,"viability, T/C",[4],73.4%
same,"viability, T/C",[5],68.5%
same,"viability, T/C","second compound 0.316 µM, first compound 0.000316 µM",81.5%
same,"viability, T/C","second compound 0.316 µM, first compound 0.001 µM",85.8%
same,"viability, T/C","second compound 0.316 µM, first compound 0.00316 µM",85.1%
same,"viability, T/C","second compound 0.316 µM, first compound 0.01 µM",71.5%
same,"viability, T/C",[6],80.7%
same,"viability, T/C",[7],74.8%
same,"viability, T/C","second compound 1 µM, first compound 0.000316 µM",88.3%
same,"viability, T/C","second compound 1 µM, first compound 0.001 µM",94.4%
same,"viability, T/C","second compound 1 µM, first compound 0.00316 µM",78.6%
same,"viability, T/C","second compound 1 µM, first compound 0.01 µM",72.7%
same,"viability, T/C",[8],76.1%
same,"viability, T/C",[9],69.1%
